Data on seven sequences can be found in US20110117120A1, “Plasmodium falciparum HLA class I restricted T-cell epitopes” (priority 2009, published 2011).

“Also recorded” adds a separate entry of the source. No end group written: not given here.

Common to all, as to type: cell-based, human
Assay [1] deals with PBMC. The assay can be described thus: ELISpot IFN-γ assay with PBMC of AdPfCA / DNA-primed volunteers (Example 2). The settings on record: 12 wk post challenge. The text has this:
To more clearly define immunological active regions of AMA1, PBMCs were isolated from AMA1 immunized volunteers. Two groups of volunteers, i.e., Gp 1 (from example 1, above) and Gp2, received 2×10^10 particle units of AdPfCA (NMRC-M3V-Ad-PfCA, NMRC+Multi-antigen Multi-stage, Malaria Vaccine+Adenovector+P. falciparum CSP & AMA1 antigens). The vaccine is a combination of two separate recombinant Ad5 constructs, one expressing full length CSP and the other expressing full length apical membrane antigen 1 (AMA1). AdPfCA expressed the AMA1 regions A1 through A12. Twenty-eight (28) days later, PBMC's were collected.
In a third group (termed preCh in FIG. 7 and FIG. 8), fifteen volunteers were primed with three doses (2 mg/dose) with one month between doses. Sixteen weeks after the final DNA priming dose, each volunteer received 2×10^10 particle units of AdPfCA. PBMC's were collected on day 22-23 after receiving AdPfCA. The region of the AMA gene expressed by the DNA expression plasmid is also illustrated in FIG. 6. The DNA vaccine expressed approximately half of the A1 region of AMA1, the entire regions of A2 through A10 and a portion of A11. As in Gp 1 and Gp 2, AdPfCA expressed the AMA1 regions A1 through A12.
(§1) The stimulation of circulating antigen-specific T cell lymphocytes was evaluated by measurement of γ-IFN induction by ELISPOT. The ELISpot assay was conducted using thawed cryopreserved PBMC at 200 K cells per well. Pre-challenge cells were taken at day 21 and day 22 post AdPfCA vaccination. Cells were suspended in […] complete medium and were stimulated with AMA1 peptides suspended in […] of complete medium. Peptide concentrations used in assays was 10 μg/ml of each peptide tested. Cultures were incubated for 36 h at 37° C., 5% CO2. Depending on availability of cells, each PBMC sample was assayed in duplicate, triplicate, or quadruplicate and the number of IFN-γ-secreting cells recognized as spot-forming cells (SFC) was enumerated using an automated ELISpot reader. In duplicate assays, all values were used in analysis. For triplicate or quadruplicate assays, outliers were rejected if any single value contributed more than 50% of the standard deviation of the triplicate (or quadruplicate) and if its value was three-fold greater or less than the average of the remaining two (or three) values. The mean spot forming cells (SFCs) obtained in negative control wells were subtracted from the value of each test well from the same sample. Negative counts generated by this background subtraction were converted to zero. The mean spot number of the test sample was then calculated and expressed as SFC/million PBMCs. Values obtained with pre-vaccinated samples were subtracted from the post-vaccination values.
In a further study, volunteers were immunized with AdCA. […]

Assay [2] deals with CD4+ and CD8+ T cells of PBMC. The experiment in a line: Intracellular cytokine staining (ICS) of CD4+ and CD8+ T cells. The settings on record: for CD8^+ T cell IFN-γ response in ICS: HLA-matched volunteers, FIG. 1 upper panel. The method, then: ICS was performed on PBMCs with costimulatory antibodies anti-CD28 and […] (obtained from BD Bioscience™, San Jose, Calif.). The peptides were used at the same concentrations as in ELISpot assays. Stimulants were added t cells and incubated at 37° C. with 5% CO2 for 2 hr. Golgi Plug™ (Brefeldin A) (BD Bioscience™, San Jose, Calif.) was added at a final concentration of 0.6 μL/mL and incubated at 37° C. with 5% CO2 overnight. Cells were stained with anti-CD3 (Alexa Fluor 700™), anti-CD4 (PerCP™), and anti-CD8 Pacific Blue™ (obtained from BD Bioscience™, San Jose, Calif.). and 1 μg/mL of live/dead fixable blue dye, incubated and washed. Cells were permeabilized with Cytofix/Cytoperm™ solution (obtained from BD Bioscience™, San Jose, Calif.), incubated and washed. Cells were stained intracellularly with anti-CD3 ([…]), anti-CD4 (PerCP™), and anti-CD8 Pacific Blue™, anti-IFN-γ FITC, anti-TNF PE, and anti-IL2 APC, incubated and washed. Cells were resuspended and the entire available sample was acquired by flowcytometry. The gating strategy included progressively measuring total cells; viable cells only; lymphocytes; T cells; CD4^+ CD8^+ populations; and a specific cell type expressing a specific cytokine. Histograms were used to determine the total production of IFN-γ, IL2, and TNF for the CD4^+ and CD8^+ populations. Boolean gates were used to determine cells producing combinations of cytokines.
In these studies, T cells containing IFN-γ, IL2, or TNFα, were gated into different subsets: IFN-γ+, IL2+, TNFα−; IFN-γ+, IL2-, TNFα+; IFN-γ+, IL2+, TNFα+; or IFN-γ+, IL2−, TNFα− T cells, and stimulated with the predicted epitopes and their parent peptide pool. The frequency of CD8^+ T cells producing total IFN-γ was far greater than CD4^+ T cell responses (FIG. 1, upper panel), which were extremely low.

Assay [3] concerns PBMC. The experiment in a line: ELISpot IFN-γ assay with PBMC of Ad5-PfCA immunized volunteers (Example 1). The settings on record: threshold 40 SFC/million. The method, then:
In order to assess the pools for their ability to induce T-cell responses, specifically CD 8^+ responses, PBMC, 1 month post immunization were used, from the five volunteers in Table 1, in ELISpot assays. In these studies, IFN-γ activity was measured in response to exposure to the peptide pools. The assays were conducted essentially as described by Wang, et al., Proc. Natl. Acad. Sci. (U.S.A.), 98: 10817-22.
as §1

The subject of assay [4] is CD8+ or CD4+ T-cell depleted PBMC. The experiment in a line: ELISpot IFN-γ assay after CD8+ or CD4+ T-cell depletion (Example 2, Table 6). The settings on record: for CD4^+ depletion % change / CD8^+ Depletion % change / CD4^+ depletion, test / CD8^+ Depletion, test / CD4^+ depletion, control / CD8^+ Depletion, control: Vol. 1550-11; for CD4^+ depletion, test: CD4+ depleted; for CD8^+ Depletion, test: CD8+ depleted. The method, then: PBMC population depletion was conducted using anti-human CD4+ and anti-CD8^+ coated Dynabeads™ M-450 (Dynal, Great Neck, N.Y.) following the manufacturer's instructions. Mock depletion was done with Dynabeads coated with Sheep anti-mouse IgG. Flow cytometry confirmed that T-cell subset depletions were >99% in all experiments. The data is presented as the % effect (decrease) in activity after T cell subset depletion. […]
The results of this study, summarized in Table 6, identified other CD8^+ epitopes, associated specific HLA class I genes.

As for “KSHGKGYNW (listed as Plasmodium falciparum)”, the “Unfract. PBMC” value with PBMC [1] (Vol. 1550-10) worked out at 159 SFC/10^6; in the assay on PBMC [1] (Vol. 1550-18) it was 181 SFC/10^6.

“NEFPAIDLF (listed as Plasmodium falciparum) [Epitope 2]”: the “CD8^+ T cell IFN-γ response in ICS” value in assay [2] is “equal or more CD8^+ IFN-γ than the parent peptide pool”.

On to NEVVVKEEY [Epitope 1, NEVVVKEEY], for which the “CD8^+ T cell IFN-γ response in ICS” value in assay [2] is listed as “equal or more CD8^+ IFN-γ than the parent peptide pool”.

As for REHPKEYEYPLHQEH [Ap1-12], the “CD4^+ versus CD8^+ T cell IFN-γ response (ICS and ELISpot depletion, words)” value in assay [2] (v001 and v005, FIG. 3) is “strongly recognized by CD8^+ T cells; also recorded: induced both CD4^+ and CD8^+ T cell responses”. Further, in the assay on PBMC [3] (Volunteer 002), the “IFN-γ ELISpot activity of individual 15-mer peptide” value was determined as 66 SFC/10^6. In addition, in the assay with PBMC [3] (Volunteer 005), the “IFN-γ ELISpot activity of individual 15-mer peptide” value worked out at 118 SFC/10^6. In assay [4] (4 wk post challenge), the “CD4^+ depletion % change” value is reported as 78%; the “CD8^+ Depletion % change” value is listed as 70%; the “CD4^+ depletion, test” value worked out at 28 SFC/10^6; the “CD8^+ Depletion, test” value came out at 37 SFC/10^6. Moreover, in assay [4] (4 wk post challenge), the “CD4^+ depletion, control” value was 126 SFC/10^6 and the “CD8^+ Depletion, control” value amounted to 126 SFC/10^6. In assay [4] (Pre-challenge), the “CD4^+ depletion % change” value was determined as 59%; the “CD8^+ Depletion % change” value was 49%; the “CD4^+ depletion, test” value is 67 SFC/10^6; the “CD8^+ Depletion, test” value came out at 83 SFC/10^6. In assay [4] (Pre-challenge), the “CD4^+ depletion, control” value worked out at 161 SFC/10^6 and the “CD8^+ Depletion, control” value stood at 161 SFC/10^6. The “reduction in ELISpot response after depletion of CD8^+ T-cells” value in assay [4] (summary of Table 6) is 49-66%.

Turning to “RYKSHGKGY (listed as Plasmodium falciparum) [Epitope 14]”, the “CD8^+ T cell IFN-γ response in ICS” value in assay [2] is reported as “very weak CD8^+ IFN-γ responses”. Moreover, the “multifunctional CD8^+ T cell responses in ICS” value in assay [2] (v008 and v012, any two of IFN-γ, IL-2, TNF-α, FIG. 1 lower panel) is recorded as “did not appear to induce multifunctional responses”.

Turning to TLDEMRHFY [Epitope 8], in assay [2], the “CD8^+ T cell IFN-γ response in ICS” value is given as “equal or more CD8^+ IFN-γ than the parent peptide pool”.

Take “YKSHGKGYNW (listed as Plasmodium falciparum)”: the “Unfract. PBMC” value in the assay with PBMC [1] (Vol. 1550-10) stood at 144 SFC/10^6; with PBMC [1] (Vol. 1550-18), 271 SFC/10^6.
